≈ marks a conversion by molar mass, not a printed value. Where two headings read alike, the source gives them in different places. Values belong to the compound of their own block, whether it stands above or below them.
Tests used:
[1] = Text: The completeness of the amorphization process can be checked by the absence in the Differential Scanning Calorimetry thermogram of the resulting drug-polymer system of the transition peak relative to the solid/liquid endothermic transition of the crystalline drug. The absence of the transition peak means that the enthalpy of melting is practically zero.
This transformation is indicated by the shifting of the original endothermic peak of the DSC thermogram to lower temperatures, which leads to higher dissolution rates and bioavailability.
Differential Scanning Calorimetry Data

[2] = Solubility of griseofulvin systems, pH 7.4 buffer, 37° C.
Method: (§1) The flasks were placed in a shaking thermostated apparatus and aliquots of sample solutions were taken by filtering through a Millipore membrane.
The griseofulvin concentrations were determined by spectrophotometry (λ=294 nm).

[3] = Solubility of indomethacin systems, pH 6.8 buffer, 37° C.; assay type: physicochemical
Method: The indomethacin concentrations were determined by spectrophotometry (λ=317 nm).

[4] = buffer, pH 2
Method: as §1
The indoprofen concentrations were determined by spectrophotometry (λ=280 nm).

[5] = Solubility of MAP systems, pH 5.5 phosphate buffer, 37° C.; assay type: physicochemical
Method: The flasks were placed in a shaking thermostated apparatus and aliquots of sample solutions were taken by filtering through a Millipore membrane. The concentration of MAP in the filtered aliquot was determined both by spectrophotometry (SP 8-100, Pye Unicam) after dilution with methanol, λ=247 nm, and by HPLC (column: Spherisorb S30 D52, Phase Sep.; mobile phase acetonitrile/water 70/30 v/v; flow rate 1 ml/min; U.V. detection, λ=242 nm), after dilution with acetonitrile.

Melting Point [1]: 218.8 °C
% Residual of Original Heat of Fusion ([1]; griseofulvin systems, Table 3): 100%
Heat of Fusion ([1]; griseofulvin systems, Table 3): 119.22 J/g
Solubility (griseofulvin concentration) ([2]; 5 min): 9.1 µg/mL (≈ 25.8 µM)
Solubility (griseofulvin concentration) ([2]; 15 min): 11.0 µg/mL (≈ 31.2 µM)
Solubility (griseofulvin concentration) ([2]; 1 hr): 10.9 µg/mL (≈ 30.9 µM)
Solubility (griseofulvin concentration) ([2]; 3 hrs): 11.3 µg/mL (≈ 32 µM)
Solubility (griseofulvin concentration) ([2]; 24 hrs): 14.9 µg/mL (≈ 42.2 µM)
Compound: COC1=CC(=O)C[C@@H](C)[C@]12Oc1c(Cl)c(OC)cc(OC)c1C2=O [Pure crystalline Griseofulvin, griseofulvin]

Compound: COc1ccc2c(c1)c(CC(=O)O)c(C)n2C(=O)c1ccc(Cl)cc1 [Pure crystalline Indomethacin, indomethacin]
Heat of Fusion ([1]; indomethacin systems, Table 4): 110.8 J/g
Melting Point ([1]; indomethacin systems, Table 4): 160.2 °C
Solubility (indomethacin concentration) ([3]; 5 min): 230.2 µg/mL (≈ 643 µM)
Solubility (indomethacin concentration) ([3]; 15 min): 358.2 µg/mL (≈ 1000 µM)
Solubility (indomethacin concentration) ([3]; 1 hr): 482.1 µg/mL (≈ 1350 µM)
Solubility (indomethacin concentration) ([3]; 3 hrs): 502.8 µg/mL (≈ 1410 µM)
Solubility (indomethacin concentration) ([3]; 24 hrs): 502.0 µg/mL (≈ 1400 µM)

Melting Point [1]: 212-215 °C
% Residual of Original Heat of Fusion ([1]; indoprofen systems, Table 2): 100.0%
Heat of Fusion ([1]; indoprofen systems, Table 2): 134.6 J/g
Solubility (indoprofen concentration) ([4]; 5 min): 1.6 µg/mL (≈ 5.69 µM)
Solubility (indoprofen concentration) ([4]; 0.25 h): 3.0 µg/mL (≈ 10.7 µM)
Solubility (indoprofen concentration) ([4]; 1 h): 4.8 µg/mL (≈ 17.1 µM)
Solubility (indoprofen concentration) ([4]; 24 h): 10.3 µg/mL (≈ 36.6 µM)
Compound: CC(C(=O)O)c1ccc(N2Cc3ccccc3C2=O)cc1 (stereo not drawn) [Pure crystalline Indoprofen, indoprofen]

Melting Point [1]: 205-206 °C
melting point [1]: 205.6 °
% Residual of Original Heat of Fusion ([1]; MAP systems, Table 1): 100.0%
Heat of Fusion ([1]; MAP systems, Table 1): 88.0 J/g
Solubility (MAP dissolved) ([5]; 5 min): < 0.04 µg/mL
Solubility (MAP dissolved) ([5]; 15 min): 0.32 µg/mL
Solubility (MAP dissolved) ([5]; 1 hr): 0.68 µg/mL
Solubility (MAP dissolved) ([5]; 6 hrs): 1.00 µg/mL
Compound: CC(=O)O[C@]1(C(C)=O)CC[C@H]2[C@@H]3C[C@H](C)C4=CC(=O)CC[C@]4(C)[C@H]3CC[C@@]21C [Pure crystalline MAP, medroxyprogesterone acetate]

Reference: patent publication US4639370A, “Pharmaceutical composition” (Farmitalia Carlo Erba S.p.A., priority 1984, dated 1987)
